The conditions of series [1]: for Triple point temperature: Crystal; for viscosity: 101.33 kPa, Liquid.
A short description of series [2]: molar heat capacity at constant pressure. Conditions: 101.33 kPa, Liquid, Large sample (1 g) DSC.

± gives the expanded uncertainty stated by the source.

As a reminder, the viscosity is the resistance of a fluid to flow.

Take `CCCC[n+]1ccc(N(C)C)cc1.[Br-]` [1-butyl-4-(dimethylamino)pyridinium bromide]: the Triple point temperature in series [1] amounted to 495 ± 3 K.

Consider `CCCC[n+]1cccc(C)c1.O=S(=O)([N-]S(=O)(=O)C(F)(F)F)C(F)(F)F`, for which the entries for the “molar heat capacity at constant pressure” value in series [2] (298 K) and in series [2] (323 K) were 622 ± 63 J/K/mol and 641 ± 65 J/K/mol, respectively. The viscosity in series [1] (283 K) came to 138 ± 8 mPa·s; in series [1] (293 K), 80 ± 4 mPa·s; in series [1] (298 K), 63 ± 3 mPa·s; in series [1] (303 K), 51 ± 2 mPa·s; in series [1] (313 K) it was 34 ± 2 mPa·s; in series [1] (323 K) it was 24 ± 1 mPa·s. In addition, the viscosity in series [1] (333 K) was 18 ± 1 mPa·s; in series [1] (343 K), 14 ± 1 mPa·s. For the same compound, the Glass transition temperature in series [1] is -84 ± 4 °C.

In the case of `CCn1cc[n+](C)c1.O=S(=O)([N-]S(=O)(=O)C(F)(F)F)C(F)(F)F`, the viscosity stood at 52 ± 3 mPa·s in series [1] (283 K); 36 ± 2 mPa·s in series [1] (293 K); 32 ± 2 mPa·s in series [1] (298 K); 26 ± 1 mPa·s in series [1] (303 K); 19 ± 1 mPa·s in series [1] (313 K); 15 ± 1 mPa·s in series [1] (323 K). Moreover, the viscosity was determined as 12 ± 1 mPa·s in series [1] (333 K) and 9 ± 1 mPa·s in series [1] (343 K).

For `CCCCCC[n+]1ccc(N(C)C)c(C)c1.[Br-]` [4-(dimethylamino)-1-hexyl-3-methylpyridinium bromide], in series [1], the Triple point temperature was determined as 392 ± 3 K and the Glass transition temperature is -2 ± 4 °C.

As for `CCCCCCn1cc[n+](C)c1C.O=S(=O)([N-]S(=O)(=O)C(F)(F)F)C(F)(F)F`, the results for the “molar heat capacity at constant pressure” value in series [2] (298 K) and in series [2] (323 K) were 686 ± 69 J/K/mol and 705 ± 71 J/K/mol, respectively. Besides, the viscosity turned out to be 317 ± 27 mPa·s in series [1] (283 K); 171 ± 13 mPa·s in series [1] (293 K); 131 ± 9 mPa·s in series [1] (298 K); 101 ± 6 mPa·s in series [1] (303 K); 63 ± 3 mPa·s in series [1] (313 K); 42 ± 2 mPa·s in series [1] (323 K). Besides, the viscosity in series [1] (333 K) is reported as 30 ± 2 mPa·s; in series [1] (343 K) it was 22 ± 1 mPa·s. The Triple point temperature in series [1] is given as 268 ± 3 K. The Glass transition temperature in series [1] is -74 ± 4 °C.

For the compound `CCCC[n+]1cccc(C)c1.F[B-](F)(F)F` [1-butyl-3-methylpyridinium tetrafluoroborate], the “molar heat capacity at constant pressure” value in series [2] (298 K) was found to be 405 ± 41 J/K/mol; in series [2] (323 K), 421 ± 43 J/K/mol. The viscosity came to 517 ± 53 mPa·s in series [1] (283 K); 246 ± 22 mPa·s in series [1] (293 K); 177 ± 13 mPa·s in series [1] (298 K); 132 ± 8 mPa·s in series [1] (303 K); 78 ± 4 mPa·s in series [1] (313 K); 48 ± 3 mPa·s in series [1] (323 K). Moreover, the values for the viscosity in series [1] (333 K) and in series [1] (343 K) were 33 ± 2 mPa·s and 23 ± 1 mPa·s, respectively. In addition, the Glass transition temperature in series [1] is -76 ± 4 °C.

With `CCCCCC[n+]1cc(C)cc(C)c1.O=S(=O)([N-]S(=O)(=O)C(F)(F)F)C(F)(F)F`, the “molar heat capacity at constant pressure” value in series [2] (298 K) is given as 620 ± 63 J/K/mol; in series [2] (323 K) it was 665 ± 67 J/K/mol. In addition, the viscosity in series [1] (283 K) amounted to 251 ± 20 mPa·s; in series [1] (293 K), 136 ± 10 mPa·s; in series [1] (298 K), 104 ± 6 mPa·s; in series [1] (303 K), 81 ± 4 mPa·s; in series [1] (313 K) it was 52 ± 3 mPa·s; in series [1] (323 K) it was 35 ± 2 mPa·s. In addition, the viscosity is recorded as 24 ± 1 mPa·s in series [1] (333 K) and 18 ± 1 mPa·s in series [1] (343 K). The Triple point temperature in series [1] is 283 ± 3 K. For the same compound, the Glass transition temperature in series [1] was -76 ± 4 °C.

Turning to `CCCCCCCCn1cc[n+](C)c1.[Br-]` [1-methyl-3-octylimidazolium bromide], the “molar heat capacity at constant pressure” value in series [2] (298 K) stood at 392 ± 40 J/K/mol; in series [2] (323 K) it was 408 ± 41 J/K/mol.

In the case of `CCCCCCCCn1cc[n+](C)c1.O=S(=O)([N-]S(=O)(=O)C(F)(F)F)C(F)(F)F`, the “molar heat capacity at constant pressure” value was found to be 654 ± 66 J/K/mol in series [2] (298 K) and 677 ± 68 J/K/mol in series [2] (323 K). Besides, in series [1], the Glass transition temperature is -84 ± 4 °C.

As for `CCCCn1cc[n+](C)c1.O=C([O-])C(F)(F)F` [1-butyl-3-methylimidazolium trifluoroacetate], the viscosity worked out at 155 ± 10 mPa·s in series [1] (283 K); 89 ± 5 mPa·s in series [1] (293 K); 70 ± 4 mPa·s in series [1] (298 K); 53 ± 3 mPa·s in series [1] (303 K); 37 ± 2 mPa·s in series [1] (313 K); 26 ± 1 mPa·s in series [1] (323 K). In addition, the figures for the viscosity in series [1] (333 K) and in series [1] (343 K) were 19 ± 1 mPa·s and 15 ± 1 mPa·s, respectively.

`CCCCCC[n+]1cccc(C)c1.O=S(=O)([N-]S(=O)(=O)C(F)(F)F)C(F)(F)F`: the entries for the “molar heat capacity at constant pressure” value in series [2] (298 K) and in series [2] (323 K) were 624 ± 63 J/K/mol and 644 ± 65 J/K/mol, respectively. The viscosity in series [1] (283 K) is recorded as 197 ± 14 mPa·s; in series [1] (293 K), 110 ± 7 mPa·s; in series [1] (298 K) it was 85 ± 5 mPa·s; in series [1] (303 K), 67 ± 4 mPa·s; in series [1] (313 K), 44 ± 2 mPa·s; in series [1] (323 K), 30 ± 2 mPa·s. Besides, the viscosity in series [1] (333 K) is 22 ± 1 mPa·s; in series [1] (343 K), 16 ± 1 mPa·s. Besides, the Glass transition temperature in series [1] is -82 ± 4 °C.

For `CCCC[n+]1cc(C)cc(C)c1.[Br-]` [1-butyl-3,5-dimethylpyridinium bromide], in series [1], the Triple point temperature worked out at 368 ± 3 K and the Glass transition temperature was -24 ± 4 °C.

For the compound `CCCCCC[n+]1ccc(N(C)C)cc1.[Br-]` [4-(dimethylamino)-1-hexylpyridinium bromide], in series [1], the Triple point temperature is 469 ± 3 K.

As to `CCCCCC[n+]1ccc(N2CCC(C)CC2)cc1.[Br-]` [1-hexyl-4-(4-methyl-1-piperidinyl)pyridinium bromide], in series [1], the Glass transition temperature came out at 33 ± 4 °C.

As to `CCCCCCCCCCCCCC[N+](C)(CCOCCOCCOCCOCCOCCO)CCOCCOCCOCCOCCOCCO.COS(=O)(=O)[O-]`, the “molar heat capacity at constant pressure” value in series [2] (298 K) worked out at 1066 ± 110 J/K/mol; in series [2] (323 K), 1098 ± 110 J/K/mol. Moreover, the viscosity in series [1] (283 K) is 10240 ± 4400 mPa·s; in series [1] (298 K), 2790 ± 910 mPa·s; in series [1] (303 K), 1910 ± 560 mPa·s; in series [1] (313 K), 964 ± 230 mPa·s; in series [1] (323 K) it was 511 ± 98 mPa·s; in series [1] (333 K), 300 ± 44 mPa·s. Moreover, the viscosity in series [1] (343 K) is listed as 187 ± 21 mPa·s.

`CCCCCC[n+]1ccccc1.O=S(=O)([N-]S(=O)(=O)C(F)(F)F)C(F)(F)F` [1-hexylpyridinium bis(trifluromethylsulfonyl)imide]: the “molar heat capacity at constant pressure” value in series [2] (298 K) was determined as 612 ± 62 J/K/mol; in series [2] (323 K) it was 632 ± 64 J/K/mol. Besides, the viscosity came to 189 ± 14 mPa·s in series [1] (283 K); 106 ± 7 mPa·s in series [1] (293 K); 80 ± 5 mPa·s in series [1] (298 K); 64 ± 3 mPa·s in series [1] (303 K); 42 ± 2 mPa·s in series [1] (313 K); 29 ± 2 mPa·s in series [1] (323 K). The values for the viscosity in series [1] (333 K) and in series [1] (343 K) were 21 ± 1 mPa·s and 16 ± 1 mPa·s, respectively. Further, the Triple point temperature in series [1] was 273 ± 3 K. For the same compound, the Glass transition temperature in series [1] is -77 ± 4 °C.

In the case of `CCCCn1cc[n+](C)c1.COCCOCCOS(=O)(=O)[O-]` [1-butyl-3-methylimidazolium 2-(2-methoxyethoxy)ethyl sulfate], the “molar heat capacity at constant pressure” value stood at 643 ± 65 J/K/mol in series [2] (298 K) and 652 ± 66 J/K/mol in series [2] (323 K). The viscosity came to 4070 ± 730 mPa·s in series [1] (283 K); 1676 ± 260 mPa·s in series [1] (293 K); 1033 ± 140 mPa·s in series [1] (298 K); 731 ± 82 mPa·s in series [1] (303 K); 392 ± 36 mPa·s in series [1] (313 K); 228 ± 17 mPa·s in series [1] (323 K). Further, the results for the viscosity in series [1] (333 K) and in series [1] (343 K) were 146 ± 9 mPa·s and 98 ± 5 mPa·s, respectively. Besides, the Glass transition temperature in series [1] was -62 ± 4 °C.

For `CCCC[n+]1ccccc1.[Br-]` [1-butylpyridinium bromide], the Triple point temperature in series [1] was found to be 378 ± 3 K.

For `CCCC[n+]1cccc(C)c1.[Br-]` [1-butyl-3-methylpyridinium bromide], the Glass transition temperature in series [1] was -36 ± 4 °C.

`CC(=O)[O-].CCCCn1cc[n+](C)c1` [1-butyl-3-methylimidazolium acetate]: the viscosity in series [1] (283 K) worked out at 1630 ± 240 mPa·s; in series [1] (293 K), 646 ± 80 mPa·s; in series [1] (298 K) it was 440 ± 44 mPa·s; in series [1] (303 K), 309 ± 27 mPa·s; in series [1] (313 K), 165 ± 12 mPa·s; in series [1] (323 K) it was 97 ± 6 mPa·s. The viscosity in series [1] (333 K) came out at 62 ± 3 mPa·s; in series [1] (343 K), 42 ± 2 mPa·s.

Take `CCOS(=O)(=O)[O-].CC[n+]1ccccc1` [1-ethylpyridinium ethyl sulfate]: the viscosity in series [1] (283 K) came to 356 ± 32 mPa·s; in series [1] (293 K), 183 ± 14 mPa·s; in series [1] (298 K), 137 ± 9 mPa·s; in series [1] (303 K), 105 ± 6 mPa·s; in series [1] (313 K), 66 ± 4 mPa·s; in series [1] (323 K), 43 ± 2 mPa·s. In addition, the viscosity in series [1] (333 K) worked out at 31 ± 2 mPa·s; in series [1] (343 K), 23 ± 1 mPa·s.
